Consider 4 molecules from patent US20090238808A1, “Process for the identification of novel enzyme interacting compounds” (priority 2005, published 2009).

Common to all, as to assay: Kinobeads elution with test compound, mouse brain lysate, MS
What all share (format): binding
Conditions in all cases: kinase released from kinobeads by specific elution

For one assay, the target named is AAK1 (Mus musculus, UniProt Q3UHJ0). As to the method:
(§1) This example illustrates competitive elution of proteins bound to kinobeads with non-modified test compounds (see particularly the fourth aspect of the invention). The kinobeads (as described in example 1) were contacted with mouse brains lysate, bound proteins were eluted with various test compounds and the released proteins were analysed by mass spectrometry.
(§2) The kinobeads were contacted with mouse brain lysate under conditions that allow the binding of the proteins in the lysate to the ligands. The binding conditions were close to physiological by choosing suitable buffer conditions preserving the function of the proteins. After removing non-captured proteins through a gentle washing procedure the bound proteins were contacted with a test compound for protein elution.
(§3) Various test compounds (see section 2.7) were used to release bound proteins following these steps:
(§4) 1. Resuspend beads with bound proteins (section 2.4) in 1×DP buffer/0.2% NP-40 as 1:3 slurry (volume/volume). 2. Transfer 20 μl the 1:3 slurry into MoBiTech columns (equivalent to 5 μl of beads). 3. Place the column into an Eppendorf tube and centrifuge it for 15 seconds at 800 rpm at 4° C. Close columns with lower lid. 4. Add 10 μl elution buffer containing 1.0 mM of the test compound (concentration ranges of 0.1 to 1.0 mM are suitable). As a control use elution buffer containing 2% DMSO or 2% DMF dependent on the solvent used for dissolving the test compound. Close column with upper lid. 5. Incubate for 30 minutes at 4° C. in an Eppendorf incubator at 700 rpm. 6. Open column (first top, then bottom), put column back into siliconized tube (SafeSeal Microcentrifuge Tubes, cat. no 11270, Sorenson BioScience, Inc.). To harvest the eluate centrifuge 2 minutes at 2.000 rpm in table top centrifuge at room temperature. The typical volume of the eluate is approximately 15 μl. 7. Add 5 μl 4× NuPAGE SDS Sample Buffer (Invitrogen, NP0007) containing 100 mM DTT (DTT has to be added just prior to use). 8. Incubate for 30 minutes at 50° C. 9. Add 1/10 volume of 200 mg/ml iodoacetamide, incubate for 30 min at room temperature, protect from light. This reaction leads to the alkylation of cysteines for mass spectrometry. 10. Before loading samples onto the gel, centrifuge samples for 5 minutes at 15.000 rpm in order to remove precipitates. 11. For protein separation apply 10 μl sample to NuPAGE 4-12% Bis-Tris gel (Invitrogen, NPO335). 2.6 Preparation of Stock Solutions used in this Protocol
(§5) Search criteria varied depending on which mass spectrometer was used for the analysis.

Another assay addresses T1, EphB2 (Mus musculus, UniProt P54763).
T1 sequence (P54763 19-986): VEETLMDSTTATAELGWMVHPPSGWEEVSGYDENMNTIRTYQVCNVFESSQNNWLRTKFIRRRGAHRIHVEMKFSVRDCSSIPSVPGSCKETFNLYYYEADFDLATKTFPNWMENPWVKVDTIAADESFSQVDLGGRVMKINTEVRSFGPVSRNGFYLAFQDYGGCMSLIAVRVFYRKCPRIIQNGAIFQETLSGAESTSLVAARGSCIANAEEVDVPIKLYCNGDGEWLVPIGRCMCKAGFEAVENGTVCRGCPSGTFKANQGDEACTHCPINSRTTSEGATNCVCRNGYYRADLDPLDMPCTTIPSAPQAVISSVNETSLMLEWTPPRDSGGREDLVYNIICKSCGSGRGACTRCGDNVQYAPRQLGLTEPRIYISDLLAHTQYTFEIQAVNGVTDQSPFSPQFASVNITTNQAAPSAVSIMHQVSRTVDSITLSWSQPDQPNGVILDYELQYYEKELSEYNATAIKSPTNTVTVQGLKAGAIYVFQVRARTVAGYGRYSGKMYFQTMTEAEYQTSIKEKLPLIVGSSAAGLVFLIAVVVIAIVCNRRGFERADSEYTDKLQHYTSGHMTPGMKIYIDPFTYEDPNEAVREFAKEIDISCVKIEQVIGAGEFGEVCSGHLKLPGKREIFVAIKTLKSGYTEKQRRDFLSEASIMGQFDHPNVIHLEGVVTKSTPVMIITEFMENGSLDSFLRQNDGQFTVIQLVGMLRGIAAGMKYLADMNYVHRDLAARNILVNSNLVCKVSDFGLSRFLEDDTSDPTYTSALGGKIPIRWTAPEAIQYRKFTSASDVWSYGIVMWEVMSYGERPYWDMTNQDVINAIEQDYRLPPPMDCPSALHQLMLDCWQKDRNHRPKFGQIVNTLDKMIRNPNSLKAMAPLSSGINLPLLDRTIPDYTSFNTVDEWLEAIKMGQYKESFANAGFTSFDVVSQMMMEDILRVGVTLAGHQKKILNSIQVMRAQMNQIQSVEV
How it is done:
as §1, §2, §3, §4, §5

The target in a further assay is T2, GSK3Aps (Mus musculus, UniProt Q2NL51).
T2 construct: from tissue; host or cells: mouse brain
As to the method: as §1, §2, §3, §4, §5

The target of a further assay is T3, JNK3 (Mus musculus, UniProt Q61831).
T3 construct: from tissue; host or cells: mouse brain
As to the method:
as §1, §2, §3, §4, §5

The target in another assay is FER (Mus musculus, UniProt P70451). How it is done: as §1, §2, §3, §4, §5
The target of a further assay is CaMK2b (Mus musculus, UniProt P28652). As to the method: as §1, §2, §3, §4, §5
The next assay relates to YESps. As to the method:
as §1, §2, §3, §4, §5

The target of another assay is T4, MAP2K1 (Mus musculus, UniProt P31938).
T4 construct: from tissue; host or cells: mouse brain
As to the method:
as §1, §2, §3, §4, §5

For the next assay, the target named is T5, Erk1ps5 (Mus musculus, UniProt Q63844).
T5 construct: […]; from tissue; host or cells: mouse brain
How it is done: as §1, §2, §3, §4, §5

A further assay deals with T6, CaMK2d (Mus musculus, UniProt Q6PHZ2).
T6 construct: […]; from tissue; host or cells: mouse brain
How it is done: as §1, §2, §3, §4, §5

In a further assay the target is CDK5 (Mus musculus, UniProt P49615). How it is done:
as §1, §2, §3, §4, §5

The target in another assay is EphA5 (Mus musculus, UniProt Q60629). As to the method:
as §1, §2, §3, §4, §5

The target in the next assay is T7, Erk2 (Mus musculus, UniProt P63085).
T7 construct: […]; from tissue; host or cells: mouse brain
As to the method: as §1, §2, §3, §4, §5

T5 sequence (Q63844 2-380 limits assumed): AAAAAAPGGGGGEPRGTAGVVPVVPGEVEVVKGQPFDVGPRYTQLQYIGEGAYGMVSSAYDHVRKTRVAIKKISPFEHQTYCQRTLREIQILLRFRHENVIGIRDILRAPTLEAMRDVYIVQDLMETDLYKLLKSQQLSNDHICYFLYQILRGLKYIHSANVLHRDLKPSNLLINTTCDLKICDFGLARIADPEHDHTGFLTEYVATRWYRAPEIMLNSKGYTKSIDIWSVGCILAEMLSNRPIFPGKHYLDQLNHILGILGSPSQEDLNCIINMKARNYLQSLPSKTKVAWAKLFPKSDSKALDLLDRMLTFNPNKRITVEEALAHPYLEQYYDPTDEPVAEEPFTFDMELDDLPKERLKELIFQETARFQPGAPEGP
FER, sequence (P70451 whole entry): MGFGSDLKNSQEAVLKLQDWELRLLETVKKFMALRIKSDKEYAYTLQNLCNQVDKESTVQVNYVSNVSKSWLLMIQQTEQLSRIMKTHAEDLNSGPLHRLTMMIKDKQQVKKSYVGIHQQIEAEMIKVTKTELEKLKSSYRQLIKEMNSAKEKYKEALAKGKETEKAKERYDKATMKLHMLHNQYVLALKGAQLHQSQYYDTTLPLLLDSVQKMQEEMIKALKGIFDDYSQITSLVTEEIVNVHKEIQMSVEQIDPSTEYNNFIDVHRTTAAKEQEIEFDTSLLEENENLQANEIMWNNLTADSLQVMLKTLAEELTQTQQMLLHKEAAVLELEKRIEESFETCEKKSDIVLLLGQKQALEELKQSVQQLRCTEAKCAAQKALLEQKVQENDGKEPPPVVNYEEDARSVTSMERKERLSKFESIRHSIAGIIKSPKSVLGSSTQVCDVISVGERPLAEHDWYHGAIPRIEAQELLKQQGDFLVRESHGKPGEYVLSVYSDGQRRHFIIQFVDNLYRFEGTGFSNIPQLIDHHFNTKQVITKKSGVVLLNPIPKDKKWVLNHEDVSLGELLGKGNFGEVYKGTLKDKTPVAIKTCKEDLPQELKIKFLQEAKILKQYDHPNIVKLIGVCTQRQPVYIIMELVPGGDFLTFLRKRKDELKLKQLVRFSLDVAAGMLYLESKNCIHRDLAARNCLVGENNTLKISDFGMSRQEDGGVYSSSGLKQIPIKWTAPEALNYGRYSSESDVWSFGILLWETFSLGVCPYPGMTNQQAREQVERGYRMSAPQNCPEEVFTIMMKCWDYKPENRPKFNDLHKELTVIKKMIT
CDK5, sequence (P49615 whole entry): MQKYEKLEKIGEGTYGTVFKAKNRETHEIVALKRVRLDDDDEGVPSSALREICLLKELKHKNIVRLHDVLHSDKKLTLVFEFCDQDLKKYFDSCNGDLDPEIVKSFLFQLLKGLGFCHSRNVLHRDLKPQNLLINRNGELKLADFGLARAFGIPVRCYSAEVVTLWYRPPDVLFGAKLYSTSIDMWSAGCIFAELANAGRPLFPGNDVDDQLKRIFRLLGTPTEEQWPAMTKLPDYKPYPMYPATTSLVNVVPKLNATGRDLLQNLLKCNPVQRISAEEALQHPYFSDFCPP
EphA5, sequence (Q60629 27-876): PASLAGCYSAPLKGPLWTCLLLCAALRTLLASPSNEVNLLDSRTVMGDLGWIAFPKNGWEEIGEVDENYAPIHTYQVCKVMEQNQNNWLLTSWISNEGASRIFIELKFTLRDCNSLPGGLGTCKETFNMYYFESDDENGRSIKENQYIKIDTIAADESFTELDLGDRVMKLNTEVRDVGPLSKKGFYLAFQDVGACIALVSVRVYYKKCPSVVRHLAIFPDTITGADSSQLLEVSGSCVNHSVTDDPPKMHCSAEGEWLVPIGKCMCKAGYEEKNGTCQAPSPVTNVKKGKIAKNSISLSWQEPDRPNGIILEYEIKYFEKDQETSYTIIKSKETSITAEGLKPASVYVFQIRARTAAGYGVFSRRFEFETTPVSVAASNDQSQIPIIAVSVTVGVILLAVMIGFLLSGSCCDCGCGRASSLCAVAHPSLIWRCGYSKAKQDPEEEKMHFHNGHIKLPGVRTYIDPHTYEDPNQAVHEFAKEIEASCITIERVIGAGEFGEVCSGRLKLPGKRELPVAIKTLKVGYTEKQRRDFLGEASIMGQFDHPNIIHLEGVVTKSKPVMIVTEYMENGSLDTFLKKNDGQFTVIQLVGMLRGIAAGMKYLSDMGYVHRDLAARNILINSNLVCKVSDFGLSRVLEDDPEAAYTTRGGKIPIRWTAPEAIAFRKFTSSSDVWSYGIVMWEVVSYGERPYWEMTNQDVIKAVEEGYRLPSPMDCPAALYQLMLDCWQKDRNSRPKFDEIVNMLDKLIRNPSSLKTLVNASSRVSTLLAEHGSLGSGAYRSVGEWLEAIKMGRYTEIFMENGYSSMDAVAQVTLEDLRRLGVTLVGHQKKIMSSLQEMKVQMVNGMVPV
T3 sequence (Q61831 whole entry): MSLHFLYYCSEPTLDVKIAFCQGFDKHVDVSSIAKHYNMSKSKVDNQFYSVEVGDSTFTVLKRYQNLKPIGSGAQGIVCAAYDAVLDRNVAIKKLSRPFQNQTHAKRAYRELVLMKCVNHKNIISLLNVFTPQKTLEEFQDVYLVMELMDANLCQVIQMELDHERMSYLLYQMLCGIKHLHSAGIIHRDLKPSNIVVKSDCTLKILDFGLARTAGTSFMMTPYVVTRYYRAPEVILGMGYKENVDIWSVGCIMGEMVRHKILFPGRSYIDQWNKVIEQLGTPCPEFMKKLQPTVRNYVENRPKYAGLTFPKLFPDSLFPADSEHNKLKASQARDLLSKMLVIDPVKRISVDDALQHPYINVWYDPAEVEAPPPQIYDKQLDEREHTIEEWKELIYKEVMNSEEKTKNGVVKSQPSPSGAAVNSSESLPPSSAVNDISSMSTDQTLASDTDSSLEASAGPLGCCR
T2 sequence (Q2NL51 2-490 limits assumed): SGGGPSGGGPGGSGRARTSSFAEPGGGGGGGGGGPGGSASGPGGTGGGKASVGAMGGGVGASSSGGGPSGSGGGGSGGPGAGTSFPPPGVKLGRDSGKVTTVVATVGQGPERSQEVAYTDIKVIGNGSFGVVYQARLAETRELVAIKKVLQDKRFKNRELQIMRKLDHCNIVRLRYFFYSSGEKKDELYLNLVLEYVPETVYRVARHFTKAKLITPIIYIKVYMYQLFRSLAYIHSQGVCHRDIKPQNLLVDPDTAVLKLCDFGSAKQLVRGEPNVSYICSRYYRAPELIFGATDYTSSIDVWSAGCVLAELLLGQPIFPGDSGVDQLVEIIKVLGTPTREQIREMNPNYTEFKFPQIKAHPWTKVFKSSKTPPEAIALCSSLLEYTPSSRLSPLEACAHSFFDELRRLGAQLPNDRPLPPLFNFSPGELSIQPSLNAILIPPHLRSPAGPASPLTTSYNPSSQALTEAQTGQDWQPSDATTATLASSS
AAK1, sequence (Q3UHJ0 whole entry): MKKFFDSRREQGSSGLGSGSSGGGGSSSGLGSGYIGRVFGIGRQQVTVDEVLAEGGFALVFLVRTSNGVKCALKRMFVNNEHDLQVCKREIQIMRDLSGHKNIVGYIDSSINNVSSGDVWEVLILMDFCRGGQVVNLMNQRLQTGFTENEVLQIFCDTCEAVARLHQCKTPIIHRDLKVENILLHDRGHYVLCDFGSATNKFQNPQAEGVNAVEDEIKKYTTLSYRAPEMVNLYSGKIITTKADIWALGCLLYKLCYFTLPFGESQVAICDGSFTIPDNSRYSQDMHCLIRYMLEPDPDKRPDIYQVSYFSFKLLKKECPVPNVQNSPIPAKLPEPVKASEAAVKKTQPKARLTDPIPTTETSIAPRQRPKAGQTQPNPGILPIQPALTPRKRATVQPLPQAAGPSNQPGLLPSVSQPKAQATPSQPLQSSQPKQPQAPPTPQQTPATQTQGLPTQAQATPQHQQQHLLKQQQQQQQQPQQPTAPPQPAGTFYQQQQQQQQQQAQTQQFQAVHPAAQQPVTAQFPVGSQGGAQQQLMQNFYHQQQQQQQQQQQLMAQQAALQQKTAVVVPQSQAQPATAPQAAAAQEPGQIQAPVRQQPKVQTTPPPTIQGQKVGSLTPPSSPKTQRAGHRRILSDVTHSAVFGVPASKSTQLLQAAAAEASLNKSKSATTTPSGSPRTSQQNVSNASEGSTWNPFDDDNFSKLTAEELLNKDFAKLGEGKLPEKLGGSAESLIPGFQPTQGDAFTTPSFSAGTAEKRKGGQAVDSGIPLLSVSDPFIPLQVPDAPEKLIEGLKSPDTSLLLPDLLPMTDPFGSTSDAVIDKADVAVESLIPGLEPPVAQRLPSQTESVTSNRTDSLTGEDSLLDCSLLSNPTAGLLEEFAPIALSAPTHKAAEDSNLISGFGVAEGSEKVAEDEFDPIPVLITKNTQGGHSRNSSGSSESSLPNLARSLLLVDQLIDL
T7 sequence (P63085 whole entry): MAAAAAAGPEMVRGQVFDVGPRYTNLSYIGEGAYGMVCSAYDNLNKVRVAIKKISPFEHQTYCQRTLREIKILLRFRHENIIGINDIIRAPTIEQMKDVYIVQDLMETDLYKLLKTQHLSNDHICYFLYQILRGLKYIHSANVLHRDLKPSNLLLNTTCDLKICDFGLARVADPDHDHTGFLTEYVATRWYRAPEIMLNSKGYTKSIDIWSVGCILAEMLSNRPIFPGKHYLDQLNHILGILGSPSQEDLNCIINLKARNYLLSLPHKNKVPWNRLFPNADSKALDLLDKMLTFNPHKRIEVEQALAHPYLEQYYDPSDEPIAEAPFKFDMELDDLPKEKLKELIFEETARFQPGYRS
T4 sequence (P31938 whole entry): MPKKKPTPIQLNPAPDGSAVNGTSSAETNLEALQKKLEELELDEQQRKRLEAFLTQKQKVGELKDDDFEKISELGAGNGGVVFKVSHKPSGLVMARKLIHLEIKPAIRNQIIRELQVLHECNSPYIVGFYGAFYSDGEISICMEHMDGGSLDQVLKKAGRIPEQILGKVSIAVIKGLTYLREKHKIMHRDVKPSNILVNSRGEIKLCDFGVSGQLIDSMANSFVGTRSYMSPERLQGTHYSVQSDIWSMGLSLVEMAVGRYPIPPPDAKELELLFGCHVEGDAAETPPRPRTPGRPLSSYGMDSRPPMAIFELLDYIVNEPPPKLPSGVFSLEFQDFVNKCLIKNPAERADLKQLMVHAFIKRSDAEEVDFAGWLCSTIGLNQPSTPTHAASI

Consider `CNC1CC2OC(C)(C1OC)n1c3ccccc3c3c4c(c5c6ccccc6n2c5c31)C(=O)NC4` (centres unmarked) [CZC9280], for which, on AAK1, the “mass spectrometry score, AAK1” value came to 777 and the “number of identified peptides, AAK1” value stood at 44. Also, at EphB2, the “mass spectrometry score, EphB2” value was 114 and the “number of identified peptides, EphB2” value stood at 4. In addition, at GSK3Aps, the “mass spectrometry score, GSK3Aps” value worked out at 868 and the “number of identified peptides, GSK3Aps” value is 47. Further, at JNK3, the “mass spectrometry score, JNK3” value amounted to 363 and the “number of identified peptides, JNK3” value was found to be 10. At FER, the “mass spectrometry score, FER” value turned out to be 818 and the “number of identified peptides, FER” value was 21. In addition, on CaMK2b, the “mass spectrometry score, CaMK2b” value came to 1182 and the “number of identified peptides, CaMK2b” value stood at 72. For the same molecule, in the assay on YESps, the “mass spectrometry score, YESps” value is listed as 480 and the “number of identified peptides, YESps” value was found to be 12. Moreover, at MAP2K1, the “mass spectrometry score, MAP2K1” value is recorded as 49 and the “number of identified peptides, MAP2K1” value turned out to be 2. For the same molecule, at Erk1ps5, the “mass spectrometry score, Erk1ps5” value stood at 71 and the “number of identified peptides, Erk1ps5” value stood at 2. Besides, at CaMK2d, the “mass spectrometry score, CaMK2d” value is recorded as 822 and the “number of identified peptides, CaMK2d” value worked out at 40. Also, at CDK5, the “mass spectrometry score, CDK5” value stood at 861 and the “number of identified peptides, CDK5” value is 43.

For `CC(C)[C@H](CO)Nc1nc(Nc2ccc(C(=O)O)c(Cl)c2)c2ncn(C(C)C)c2n1` [Purvalanol B, reference compound], on EphA5, the “mass spectrometry score, EphA5” value is reported as 330 and the “number of identified peptides, EphA5” value was 14. Further, on AAK1, the “mass spectrometry score, AAK1” value is reported as 1036 and the “number of identified peptides, AAK1” value was 51. Moreover, at EphB2, the “mass spectrometry score, EphB2” value turned out to be 1334 and the “number of identified peptides, EphB2” value was found to be 30. In addition, on GSK3Aps, the “mass spectrometry score, GSK3Aps” value was 357 and the “number of identified peptides, GSK3Aps” value was 6. At Erk2, the “mass spectrometry score, Erk2” value is on record as 1437 and the “number of identified peptides, Erk2” value is listed as 115. Besides, at JNK3, the “mass spectrometry score, JNK3” value came out at 284 and the “number of identified peptides, JNK3” value came out at 7. Moreover, on FER, the “mass spectrometry score, FER” value came to 322 and the “number of identified peptides, FER” value is 8. For the same molecule, on CaMK2b, the “mass spectrometry score, CaMK2b” value came out at 679 and the “number of identified peptides, CaMK2b” value was 16. In the assay with YESps, the “mass spectrometry score, YESps” value was 304 and the “number of identified peptides, YESps” value was 7. On MAP2K1, the “mass spectrometry score, MAP2K1” value was 78 and the “number of identified peptides, MAP2K1” value amounted to 2. Also, at Erk1ps5, the “mass spectrometry score, Erk1ps5” value was determined as 749 and the “number of identified peptides, Erk1ps5” value came to 48. At CaMK2d, the “mass spectrometry score, CaMK2d” value was determined as 473 and the “number of identified peptides, CaMK2d” value was found to be 12. Besides, at CDK5, the “mass spectrometry score, CDK5” value was determined as 1086 and the “number of identified peptides, CDK5” value is reported as 41.

On to `NCc1ccc(Nc2ncc(F)c(Nc3ccccc3)n2)cc1` [CZC00008004], for which, on AAK1, the “mass spectrometry score, AAK1” value is listed as 718 and the “number of identified peptides, AAK1” value is recorded as 35. Besides, on EphB2, the “mass spectrometry score, EphB2” value amounted to 149 and the “number of identified peptides, EphB2” value was determined as 5. On GSK3Aps, the “mass spectrometry score, GSK3Aps” value amounted to 635 and the “number of identified peptides, GSK3Aps” value is reported as 27. Also, on Erk2, the “mass spectrometry score, Erk2” value turned out to be 810 and the “number of identified peptides, Erk2” value was 46. Also, at JNK3, the “mass spectrometry score, JNK3” value worked out at 642 and the “number of identified peptides, JNK3” value is listed as 23. Further, at FER, the “mass spectrometry score, FER” value came to 100 and the “number of identified peptides, FER” value is recorded as 2. Also, on CaMK2b, the “mass spectrometry score, CaMK2b” value was determined as 685 and the “number of identified peptides, CaMK2b” value was 30. For the same molecule, in the assay on YESps, the “mass spectrometry score, YESps” value was found to be 110 and the “number of identified peptides, YESps” value was determined as 3. At Erk1ps5, the “mass spectrometry score, Erk1ps5” value is reported as 386 and the “number of identified peptides, Erk1ps5” value was determined as 26. In addition, on CaMK2d, the “mass spectrometry score, CaMK2d” value was 444 and the “number of identified peptides, CaMK2d” value is reported as 11. At CDK5, the “mass spectrometry score, CDK5” value stood at 794 and the “number of identified peptides, CDK5” value was 27.

On to `Cn1c(=O)c(-c2c(Cl)cccc2Cl)cc2cnc(Nc3ccc(CN)cc3)cc21` [CZC7324], for which, at EphA5, the “mass spectrometry score, EphA5” value is reported as 144 and the “number of identified peptides, EphA5” value worked out at 3. For the same molecule, at AAK1, the “mass spectrometry score, AAK1” value was 582 and the “number of identified peptides, AAK1” value was 35. Further, on EphB2, the “mass spectrometry score, EphB2” value was 1004 and the “number of identified peptides, EphB2” value is on record as 22. At GSK3Aps, the “mass spectrometry score, GSK3Aps” value was 154 and the “number of identified peptides, GSK3Aps” value is 3. Also, at Erk2, the “mass spectrometry score, Erk2” value is 1179 and the “number of identified peptides, Erk2” value was 235. Also, at JNK3, the “mass spectrometry score, JNK3” value is given as 782 and the “number of identified peptides, JNK3” value worked out at 49. Moreover, on FER, the “mass spectrometry score, FER” value came to 388 and the “number of identified peptides, FER” value was found to be 11. In addition, at CaMK2b, the “mass spectrometry score, CaMK2b” value stood at 499 and the “number of identified peptides, CaMK2b” value was 14. Also, at Erk1ps5, the “mass spectrometry score, Erk1ps5” value is 557 and the “number of identified peptides, Erk1ps5” value worked out at 77. In addition, at CaMK2d, the “mass spectrometry score, CaMK2d” value amounted to 328 and the “number of identified peptides, CaMK2d” value was determined as 7. At CDK5, the “mass spectrometry score, CDK5” value is reported as 462 and the “number of identified peptides, CDK5” value was 11.
